Laboratory results as given in article PMC12112332, “Characterization of Novel and Known Activators of Cannabinoid Receptor Subtype 2 Reveals Mixed Pharmacology That Differentiates Mycophenolate Mofetil and GW-842,166X from MDA7” (International Journal of Molecular Sciences, 2025).

Biological target: T1, rat CB2 (Rattus norvegicus, UniProt Q9QZN9)
T1 sequence (Q9QZN9 1-360): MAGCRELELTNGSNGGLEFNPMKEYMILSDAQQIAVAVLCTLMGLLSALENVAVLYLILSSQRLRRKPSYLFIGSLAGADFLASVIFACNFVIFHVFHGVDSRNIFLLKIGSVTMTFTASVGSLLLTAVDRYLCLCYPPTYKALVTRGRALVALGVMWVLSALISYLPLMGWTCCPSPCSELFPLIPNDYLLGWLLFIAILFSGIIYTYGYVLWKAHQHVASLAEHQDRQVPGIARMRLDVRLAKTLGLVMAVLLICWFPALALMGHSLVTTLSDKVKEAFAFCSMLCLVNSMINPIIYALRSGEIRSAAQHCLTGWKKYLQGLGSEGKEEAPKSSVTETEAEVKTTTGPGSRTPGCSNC
Assay: [3H]CP55,940 radioligand competition binding, membranes of HEK/GIRK cells expressing rat CB2
Set-up: expressed in transfected cells; host or cells: HEK293 cells stably co-expressing GIRK1/2 channels
Source text: Agonists that bind to the receptor at the site occupied by the endogenous ligand (2-AG in this case) are considered orthosteric agonists. It is also possible for an agonist to bind and activate a receptor via a site other than the orthosteric site; these ligands are classified as allosteric agonists. To characterize the nature of the agonist activity of mycophenolate mofetil, we tested its ability to bind to the receptor in equilibrium binding assays using membranes harvested from cells expressing rCB2 using the radioligand [^3H]CP55,940 [40, 60]. CP55,940 has an affinity for both CB1 and CB2 receptors in the low nM range and is reported to bind to the site occupied by 2-AG [61].
Competition binding concentration–response curves were obtained in the presence of 0.5 nM [^3H]CP55,940 using membranes harvested from HEK/GIRK cells expressing rCB2. Data represent the mean ± SEM of three independent experiments run in triplicate. Data are plotted as a percentage of specific [^3H]CP55,940 binding. Non-specific binding was determined in the presence of 10 µM CP55,940.
Membranes were made from HEK/GIRK cells stably expressing rat CB2. Radioligand competition binding assays were performed as previously described, with minor modifications. In brief, compounds were serially diluted into assay buffer with 0.1% bovine serum albumin (BSA) and added to each well of a 96-well plate, along with 20 μg/well cell membrane and approximately 500 pM [^3H]-CP55,940 (specific activity = 104 Ci/mmol, PerkinElmer, Waltham, MA, USA). Following a 3-h incubation period on a shaker at room temperature, membrane-bound ligand was separated from free ligand by filtration through glass fiber 96-well filter plates (Unifilter-96, GF/B; PerkinElmer, Waltham, MA, USA). Forty microliters of scintillation fluid were added to each well, and membrane-bound radioactivity was determined by scintillation counting (Microbeta2; Revvity, Waltham, MA, USA). Nonspecific binding was determined using 10 μM of cold CP55,940.

| SMILES | Ki [µM] | rCB2 Binding Affinity pKi ± SEM (0.5 nM [3H]CP55,940, equilibrium) |
| --- | --- | --- |
| CCCCC/C=C\C/C=C\C/C=C\C/C=C\CCCC(=O)OC(CO)CO [2-AG, 2-Arachidonoylglycerol] | 3.47 |  |
| COc1ccc(C(=O)c2c(C)n(CCN3CCOCC3)c3cc(I)ccc23)cc1 [AM630] |  | 7.61 ± 0.29 |
